Results reported in article PMC7687180 (Chembiochem, 2020).
Like-named read-outs stand apart in the source and are kept apart here.

Experiments:
[1] = molecular target: T1, SdeC (Legionella pneumophila, UniProt Q5ZTK8); test: biochemical
T1 construct: gene lpg2153

[2] = molecular target: T1, SdeC; test: biochemical; remark: listed apart in the source

| Structure (SMILES) | IC50 [1] [µM] | IC50 [2] [µM] |
| --- | --- | --- |
| NC(=O)c1cccc([C@@H]2O[C@H](COP(=O)(O)OP(=O)(O)OC[C@H]3O[C@@H](n4cnc5c(N)ncnc54)[C@H](O)[C@@H]3O)[C@@H](O)[C@H]2O)c1 [compound 3, BAD] | 38.9 |  |
| NC(=O)c1ccc[n+]([C@@H]2O[C@H](COP(=O)([O-])OP(=O)(O)OC[C@H]3O[C@@H](n4cnc5c(N)ncnc54)[C@H](O)[C@@H]3O)[C@@H](O)[C@H]2O)c1 [NAD^+] |  | 27.7 ± 1.9 |
| NC(=O)c1ccc[n+]([C@@H]2S[C@H](COP(=O)(O)OP(=O)([O-])OC[C@H]3O[C@@H](n4cnc5c(N)ncnc54)[C@H](O)[C@@H]3O)[C@@H](O)[C@H]2O)c1 [compound 2, S-NAD^+] | 27.9 |  |
